Test results as given in ChEMBL document CHEMBL4765298, “Substituted oxindol-3-ylidenes as AMP-activated protein kinase (AMPK) inhibitors” (Eur J Med Chem, 2020).
Calls of active or inactive are those of the source. No cut-off for these calls is given here.

Key:
[1] = Inhibition of recombinant human GST-tagged AMPK alpha1/beta1/gamma1 expressed in African green monkey COS7 cells assessed as reduction in AMPK beta 1 S108 phosphorylation incubated for 10 mins by [gamma 32-P]-ATP based radiometric scintillation counting analysis; type: cell-based
[2] = target: 5'-AMP-activated protein kinase catalytic subunit alpha-1 (Homo sapiens) (UniProt Q13131); test: Inhibition of recombinant human His6-tagged AMPK alpha1 at 20 uM using ULight CRBtide as substrate incubated for 1 hr followed by substrate addition and measured after 1 hr by TR-FRET assay relative to control; conditions: time 2.0 hrs
5'-AMP-activated protein kinase catalytic subunit alpha-1 (Homo sapiens), sequence (Q13131 whole entry, looked up, the tested form may be a part): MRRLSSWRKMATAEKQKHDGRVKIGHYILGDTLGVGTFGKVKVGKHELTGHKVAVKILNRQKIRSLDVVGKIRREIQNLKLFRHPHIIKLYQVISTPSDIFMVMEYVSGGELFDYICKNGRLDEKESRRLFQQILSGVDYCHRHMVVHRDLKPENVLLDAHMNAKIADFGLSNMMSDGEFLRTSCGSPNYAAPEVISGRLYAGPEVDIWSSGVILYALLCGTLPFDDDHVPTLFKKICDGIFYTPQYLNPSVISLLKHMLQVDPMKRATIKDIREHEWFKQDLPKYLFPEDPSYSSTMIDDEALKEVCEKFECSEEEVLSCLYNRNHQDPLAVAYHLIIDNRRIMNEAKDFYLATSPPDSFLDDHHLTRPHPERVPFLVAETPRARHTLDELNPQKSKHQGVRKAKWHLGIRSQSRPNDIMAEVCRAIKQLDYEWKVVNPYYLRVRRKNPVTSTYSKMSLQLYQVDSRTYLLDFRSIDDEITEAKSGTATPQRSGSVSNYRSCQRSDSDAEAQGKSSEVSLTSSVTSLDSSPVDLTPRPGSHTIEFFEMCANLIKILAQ

K562 [3] = test: Cytotoxicity against human K562 cells assessed as reduction in cell viability incubated for 48 hrs by celltox-green assay; type: cell-based; conditions: K562, 48 h
K562 [4] = test: Cytotoxicity against human K562 cells assessed as reduction in cell viability incubated for 24 hrs by celltox-green assay; type: cell-based; conditions: K562, 24 h
K562 [5] = test: Cytotoxicity against human K562 cells assessed as reduction in cell viability incubated for 24 hrs by cell-titer glo assay; type: cell-based; conditions: K562, 24 h
K562 [6] = test: Cytotoxicity against human K562 cells assessed as reduction in cell viability incubated for 72 hrs by MTS assay; type: cell-based; conditions: K562, 72 h
[7] = target: 5'-AMP-activated protein kinase catalytic subunit alpha-2 (Homo sapiens) (UniProt P54646); test: Inhibition of recombinant human His6-tagged AMPK alpha2 at 10 uM using ULight CRBtide as substrate incubated for 1 hr followed by substrate addition and measured after 1 hr by TR-FRET assay relative to control; conditions: time 2.0 hrs
5'-AMP-activated protein kinase catalytic subunit alpha-2 (Homo sapiens), sequence (P54646 whole entry, looked up, the tested form may be a part): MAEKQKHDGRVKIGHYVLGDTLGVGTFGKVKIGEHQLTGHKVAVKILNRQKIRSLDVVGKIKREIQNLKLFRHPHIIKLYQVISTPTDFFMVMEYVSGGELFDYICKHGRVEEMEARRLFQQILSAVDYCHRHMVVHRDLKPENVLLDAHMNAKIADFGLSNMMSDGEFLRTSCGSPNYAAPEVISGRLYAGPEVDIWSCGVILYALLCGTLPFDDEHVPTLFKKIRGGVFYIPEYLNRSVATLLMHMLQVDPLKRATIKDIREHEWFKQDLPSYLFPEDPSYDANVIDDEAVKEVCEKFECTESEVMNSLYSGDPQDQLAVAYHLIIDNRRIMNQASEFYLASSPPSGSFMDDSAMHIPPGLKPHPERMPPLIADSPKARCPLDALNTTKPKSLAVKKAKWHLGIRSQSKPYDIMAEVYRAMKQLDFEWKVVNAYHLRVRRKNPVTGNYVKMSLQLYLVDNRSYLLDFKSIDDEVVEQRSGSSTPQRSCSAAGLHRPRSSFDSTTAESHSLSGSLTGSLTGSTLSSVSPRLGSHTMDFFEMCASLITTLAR

[8] = Cytotoxicity against human K562 cells assessed as reduction in cell viability at 50 uM incubated for 72 hrs by MTS assay relative to control; type: cell-based; conditions: read-out: INH
[9] = Cytotoxicity against human K562 cells assessed as reduction in cell viability at 50 uM incubated for 24 hrs by cell-titer glo assay relative to control; type: cell-based; conditions: read-out: INH
[10] = Cytotoxicity against human K562 cells assessed as reduction in cell viability at 50 uM incubated for 48 hrs by celltox-green assay relative to control; type: cell-based; conditions: read-out: INH
[11] = Cytotoxicity against human K562 cells assessed as reduction in cell viability at 50 uM incubated for 24 hrs by celltox-green assay relative to control; type: cell-based; conditions: read-out: INH
[12] = Cytotoxicity against human K562 cells assessed as reduction in cell viability at 1.56 uM incubated for 72 hrs by MTS assay relative to control; type: cell-based; conditions: read-out: INH
[13] = target: Vascular endothelial growth factor receptor 1 (Homo sapiens) (UniProt P17948); test: Inhibition of wild-type human partial length FLT1 (R781 to F1239 residues) expressed in bacterial expression system at 100 nM by Kinomescan method relative to control
[14] = target: Tyrosine-protein kinase JAK1 (Homo sapiens) (UniProt P23458); test: Inhibition of wild-type human partial length JAK1 JH2 pseudokinase domain (R537 to D855 residues) expressed in mammalian expression system at 100 nM by Kinomescan method relative to control
Tyrosine-protein kinase JAK1 (Homo sapiens), sequence (P23458 whole entry, the tested form may be a part): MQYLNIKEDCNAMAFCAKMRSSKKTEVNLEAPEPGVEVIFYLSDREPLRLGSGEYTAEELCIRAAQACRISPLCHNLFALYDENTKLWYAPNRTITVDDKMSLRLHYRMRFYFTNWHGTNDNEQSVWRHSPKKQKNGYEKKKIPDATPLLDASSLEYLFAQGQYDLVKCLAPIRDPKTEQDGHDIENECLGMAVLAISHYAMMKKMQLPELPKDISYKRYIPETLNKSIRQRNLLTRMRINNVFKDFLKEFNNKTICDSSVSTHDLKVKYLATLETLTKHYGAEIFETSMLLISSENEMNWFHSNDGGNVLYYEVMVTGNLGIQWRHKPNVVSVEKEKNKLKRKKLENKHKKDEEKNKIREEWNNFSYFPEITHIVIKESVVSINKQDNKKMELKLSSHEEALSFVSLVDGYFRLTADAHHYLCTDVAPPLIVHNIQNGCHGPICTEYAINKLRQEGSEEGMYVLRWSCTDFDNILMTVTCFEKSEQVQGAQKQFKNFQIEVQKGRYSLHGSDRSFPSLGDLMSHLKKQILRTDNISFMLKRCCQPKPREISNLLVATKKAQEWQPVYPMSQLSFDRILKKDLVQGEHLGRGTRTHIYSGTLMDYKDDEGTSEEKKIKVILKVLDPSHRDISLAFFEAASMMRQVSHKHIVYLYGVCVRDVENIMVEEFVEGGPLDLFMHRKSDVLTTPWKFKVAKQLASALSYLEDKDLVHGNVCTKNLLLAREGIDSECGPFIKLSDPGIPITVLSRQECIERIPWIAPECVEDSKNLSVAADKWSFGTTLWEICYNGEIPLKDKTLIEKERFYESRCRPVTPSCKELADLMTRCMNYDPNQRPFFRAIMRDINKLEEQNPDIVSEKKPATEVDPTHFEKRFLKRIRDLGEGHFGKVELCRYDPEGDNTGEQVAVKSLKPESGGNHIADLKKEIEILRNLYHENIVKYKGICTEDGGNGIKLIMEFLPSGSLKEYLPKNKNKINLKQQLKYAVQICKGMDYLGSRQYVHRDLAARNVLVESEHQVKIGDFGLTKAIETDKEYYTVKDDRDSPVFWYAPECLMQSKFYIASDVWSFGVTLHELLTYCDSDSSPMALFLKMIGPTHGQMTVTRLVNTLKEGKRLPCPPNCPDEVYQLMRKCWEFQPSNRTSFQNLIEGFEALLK

[15] = target: Macrophage colony-stimulating factor 1 receptor (Homo sapiens) (UniProt P07333); test: Inhibition of wild-type human partial length CSF1R (I564 to S939 residues) expressed in bacterial expression system at 100 nM by Kinomescan method relative to control
Macrophage colony-stimulating factor 1 receptor (Homo sapiens), sequence (P07333 whole entry, the tested form may be a part): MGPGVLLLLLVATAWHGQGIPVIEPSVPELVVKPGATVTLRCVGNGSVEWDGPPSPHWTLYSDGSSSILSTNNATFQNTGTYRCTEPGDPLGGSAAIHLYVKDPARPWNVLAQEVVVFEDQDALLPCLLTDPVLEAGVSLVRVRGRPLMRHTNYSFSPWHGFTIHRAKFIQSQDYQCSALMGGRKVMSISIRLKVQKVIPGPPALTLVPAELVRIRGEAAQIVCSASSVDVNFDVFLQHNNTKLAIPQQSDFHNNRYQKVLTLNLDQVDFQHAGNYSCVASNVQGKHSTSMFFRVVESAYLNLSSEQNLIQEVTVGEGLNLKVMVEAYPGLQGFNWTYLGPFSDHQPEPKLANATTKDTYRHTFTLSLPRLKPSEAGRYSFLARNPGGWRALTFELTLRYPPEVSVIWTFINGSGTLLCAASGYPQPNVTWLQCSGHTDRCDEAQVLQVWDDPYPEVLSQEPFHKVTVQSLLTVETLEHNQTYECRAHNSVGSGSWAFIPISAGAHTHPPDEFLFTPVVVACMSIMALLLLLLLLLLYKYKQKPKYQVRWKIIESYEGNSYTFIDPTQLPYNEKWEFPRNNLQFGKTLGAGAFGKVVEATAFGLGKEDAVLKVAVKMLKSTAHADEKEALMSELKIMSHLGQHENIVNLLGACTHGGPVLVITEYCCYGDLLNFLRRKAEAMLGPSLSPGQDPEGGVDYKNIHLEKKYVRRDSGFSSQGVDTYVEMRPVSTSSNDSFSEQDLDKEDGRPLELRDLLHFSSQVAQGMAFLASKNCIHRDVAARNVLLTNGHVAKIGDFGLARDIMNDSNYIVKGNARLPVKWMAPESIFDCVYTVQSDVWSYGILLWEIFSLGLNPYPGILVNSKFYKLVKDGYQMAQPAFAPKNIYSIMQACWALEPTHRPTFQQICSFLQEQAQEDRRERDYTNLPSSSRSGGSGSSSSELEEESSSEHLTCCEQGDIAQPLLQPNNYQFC

K562 [16] = test: Inhibition of AMPK in human K562 cells assessed as p-ACC (Ser79) level at 50 uM in glucose free medium and in presence of 2-Deoxy-D-glucose measured after 3 hrs by ELISA; type: cell-based
[17] = target: Mast/stem cell growth factor receptor Kit (Homo sapiens) (UniProt P10721); test: Inhibition of wild-type human partial length autoinhibited KIT (Y545 to D952 residues) expressed in mammalian expression system at 100 nM by Kinomescan method relative to control
[18] = target: 5'-AMP-activated protein kinase catalytic subunit alpha-2 (Homo sapiens) (UniProt P54646); test: Inhibition of wild-type human partial length AMPK alpha2 (M1 to E306 residues) expressed in bacterial expression system at 100 nM by Kinomescan method relative to control
[19] = target: 5'-AMP-activated protein kinase catalytic subunit alpha-1 (Homo sapiens) (UniProt Q13131); test: Inhibition of wild-type human partial length AMPK alpha1 (M1 to E306 residues) expressed in bacterial expression system at 100 nM by Kinomescan method relative to control
K562 [20] = test: Inhibition of AMPK in human K562 cells assessed as p-ACC (Ser79) level at 5 uM in glucose free medium and in presence of 2-Deoxy-D-glucose measured after 3 hrs by ELISA relative to control; type: cell-based
[21] = target: Vascular endothelial growth factor receptor 2 (Homo sapiens) (UniProt P35968); conditions: dose 100.0 nM
Vascular endothelial growth factor receptor 2 (Homo sapiens), sequence (P35968 whole entry): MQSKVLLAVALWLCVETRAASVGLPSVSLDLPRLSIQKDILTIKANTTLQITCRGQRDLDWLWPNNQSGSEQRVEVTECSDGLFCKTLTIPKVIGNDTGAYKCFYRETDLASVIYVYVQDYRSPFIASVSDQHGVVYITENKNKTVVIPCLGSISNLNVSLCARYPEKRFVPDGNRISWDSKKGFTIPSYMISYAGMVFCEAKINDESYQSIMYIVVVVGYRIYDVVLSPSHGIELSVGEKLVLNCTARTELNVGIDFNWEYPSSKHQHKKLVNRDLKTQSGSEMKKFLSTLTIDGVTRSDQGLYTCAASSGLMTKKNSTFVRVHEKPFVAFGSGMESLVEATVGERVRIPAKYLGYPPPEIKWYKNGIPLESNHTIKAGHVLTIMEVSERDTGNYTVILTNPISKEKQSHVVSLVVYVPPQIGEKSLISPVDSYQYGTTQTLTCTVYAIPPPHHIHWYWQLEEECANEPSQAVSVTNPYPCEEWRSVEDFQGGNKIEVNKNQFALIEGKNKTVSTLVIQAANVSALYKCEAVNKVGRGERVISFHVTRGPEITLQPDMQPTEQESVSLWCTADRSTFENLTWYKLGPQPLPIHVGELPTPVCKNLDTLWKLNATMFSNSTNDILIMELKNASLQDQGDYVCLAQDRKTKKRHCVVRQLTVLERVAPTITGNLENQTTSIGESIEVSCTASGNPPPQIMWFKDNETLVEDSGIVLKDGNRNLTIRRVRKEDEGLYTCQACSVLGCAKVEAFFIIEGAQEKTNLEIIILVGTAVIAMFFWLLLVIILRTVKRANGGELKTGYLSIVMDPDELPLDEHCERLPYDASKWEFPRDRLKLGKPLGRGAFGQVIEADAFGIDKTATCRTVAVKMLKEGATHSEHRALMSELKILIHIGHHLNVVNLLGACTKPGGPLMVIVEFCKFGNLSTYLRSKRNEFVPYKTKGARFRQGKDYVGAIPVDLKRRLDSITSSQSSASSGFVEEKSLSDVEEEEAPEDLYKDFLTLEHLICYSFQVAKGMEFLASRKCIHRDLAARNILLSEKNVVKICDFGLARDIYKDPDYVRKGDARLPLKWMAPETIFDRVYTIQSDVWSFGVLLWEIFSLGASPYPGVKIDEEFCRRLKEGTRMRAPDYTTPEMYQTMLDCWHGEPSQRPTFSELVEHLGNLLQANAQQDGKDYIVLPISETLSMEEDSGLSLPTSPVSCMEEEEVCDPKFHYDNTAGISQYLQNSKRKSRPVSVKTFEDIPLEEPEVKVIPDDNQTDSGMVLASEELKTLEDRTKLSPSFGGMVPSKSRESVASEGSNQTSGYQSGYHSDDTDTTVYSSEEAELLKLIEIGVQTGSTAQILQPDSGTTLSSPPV
Description: Inhibition of wild-type human partial length VEGFR2 (R787 to P1253 residues) expressed in mammalian expression system at 100 nM by Kinomescan method relative to control

K562 [22] = test: Inhibition of AMPK in human K562 cells assessed as p-ACC (Ser79) level at 3.125 to […] in glucose free medium and in presence of 2-Deoxy-D-glucose measured after 3 hrs by ELISA; type: cell-based; conditions: dose 3.125-12.5 µM
[23] = target: Tyrosine-protein kinase BTK (Homo sapiens) (UniProt Q06187); test: Inhibition of wild-type human full length BTK (M1 to S659 residues) expressed in mammalian expression system at 100 nM by Kinomescan method relative to control
[24] = target: Macrophage colony-stimulating factor 1 receptor (Homo sapiens) (UniProt P07333); test: Inhibition of wild-type human partial length autoinhibited CSF1R (Y538 to S939 residues) expressed in mammalian expression system at 100 nM by Kinomescan method relative to control

## CNC(=O)c1ccccc1Oc1nc(Nc2cc(OC)c(OC)c(OC)c2)ncc1Br
[1]
  IC50: 0.4 µM

## CCN(CC)CCNC(=O)c1c(C)[nH]c(/C=C2\C(=O)Nc3cc(Br)ccc32)c1C
[2]
  inhibition: 89%

## CCNCCNC(=O)c1c(C)[nH]c(/C=C2\C(=O)Nc3ccc(F)cc32)c1C
K562 [3]
  EC50: 11.9 µM
K562 [4]
  EC50: 12.9 µM
K562 [5]
  EC50: 15.5 µM
K562 [6]
  EC50: 13.6 µM

## CCN(CC)CCNC(=O)c1c(C)[nH]c(/C=C2\C(=O)Nc3cc(C(C)C)ccc32)c1C
[7]
  inhibition: 69%

## CCN(CC)CCNC(=O)c1c(C)[nH]c(/C=C2\C(=O)Nc3cc(C)ccc32)c1C
[7]
  inhibition: 88%

## CCc1ccc2c(c1)NC(=O)/C2=C\c1[nH]c(C)c(C(=O)NCCN(CC)CC)c1C
[7]
  inhibition: 90%
[2]
  inhibition: 70%

## CCN(CC)CCNC(=O)c1c(C)[nH]c(/C=C2\C(=O)Nc3ccc(CCNC(C)=O)cc32)c1C
[8]
  cytotoxicity at 72 h, 50 µM: 64%
[9]
  cytotoxicity at 24 h, 50 µM: 98%
[10]
  cytotoxicity at 48 h, 50 µM: 42%
[11]
  cytotoxicity at 24 h, 50 µM: 5%

## CCN(CC)CCCNC(=O)c1c(C)[nH]c(/C=C2\C(=O)Nc3ccc(F)cc32)c1C
K562 [5]
  EC50: 18 µM
[11]
  cytotoxicity at 24 h, 50 µM: 63%
K562 [6]
  EC50: 13.5 µM

## CCCNC(=O)c1c(C)[nH]c(/C=C2\C(=O)Nc3ccc(F)cc32)c1C
[7]
  inhibition: 48%
[2]
  inhibition: 30%

## Cc1[nH]c(/C=C2\C(=O)Nc3ccc(F)cc32)c(C)c1C(=O)NCCN(C)C
[9]
  cytotoxicity at 24 h, 50 µM: 98%
[11]
  cytotoxicity at 24 h, 50 µM: 70%
K562 [6]
  EC50: 12.6 µM

## CCN(CC)CCNC(=O)c1c(C)[nH]c(/C=C2\C(=O)N(C)c3ccc(F)cc32)c1C
[7]
  inhibition: 17%
K562 [4]
  EC50: 12.1 µM
K562 [5]
  EC50: 11.8 µM
[2]
  inhibition: 40%
K562 [6]
  EC50: 6.79 µM

## CCN(CC)CCNC(=O)c1c(C)[nH]c(/C=C2\C(=O)Nc3cc(Cl)ccc32)c1C
K562 [3]
  EC50: 4.18 µM
K562 [4]
  EC50: 5.24 µM
K562 [5]
  EC50: 3.83 µM
[12]
  cytotoxicity at 72 h, 1.56 µM: 65%

## CCN(CC)CCNC(=O)c1c(C)[nH]c(/C=C2\C(=O)Nc3ccc(CCO)cc32)c1C
[13]
  inhibition: 42%
[14]
  inhibition: 54%
[15]
  inhibition: 24%
K562 [16]
  inhibition: Active
[17]
  inhibition: 28%
[18]
  inhibition: 35%
[19]
  inhibition: 49%
K562 [20]
  inhibition: 23.7%
[21]
  inhibition: 55%

## CCN(CC)CCNC(=O)c1c(C)[nH]c(/C=C2\C(=O)Nc3ccc(C#N)cc32)c1C
K562 [3]
  EC50: 13.6 µM
K562 [5]
  EC50: 19.9 µM
[8]
  cytotoxicity at 72 h, 50 µM: 98%
[11]
  cytotoxicity at 24 h, 50 µM: 75%

## CCN(CC)CCNC(=O)c1c(C)[nH]c(/C=C2\C(=O)Nc3cc(F)ccc32)c1C
K562 [3]
  EC50: 7.15 µM
[9]
  cytotoxicity at 24 h, 50 µM: 98%
[11]
  cytotoxicity at 24 h, 50 µM: 61%
K562 [6]
  EC50: 2.85 µM

## CCN(CC)CCNC(=O)c1c(C)[nH]c(/C=C2\C(=O)Nc3ccc(CCN=[N+]=[N-])cc32)c1C
K562 [3]
  EC50: 4.81 µM
K562 [5]
  EC50: 4.86 µM
[11]
  cytotoxicity at 24 h, 50 µM: 90%
K562 [6]
  EC50: 3.83 µM

## CCN(CC)CCNC(=O)c1c(C)[nH]c(/C=C2\C(=O)Nc3ccc(CCC(N)=O)cc32)c1C
K562 [22]
  inhibition: Active
[14]
  inhibition: 41%
[15]
  inhibition: 18%
[23]
  inhibition: 0%
[17]
  inhibition: 0%
[24]
  inhibition: 14%
[18]
  inhibition: 64%
[19]
  inhibition: 29%
K562 [20]
  inhibition: 29.2%
[21]
  inhibition: 19%

## CCN(CC)CCNC(=O)c1c(C)[nH]c(/C=C2\C(=O)Nc3ccc(CCC#N)cc32)c1C
K562 [3]
  EC50: 13.6 µM
K562 [5]
  EC50: 17.8 µM
K562 [20]
  inhibition: 34.1%
[11]
  cytotoxicity at 24 h, 50 µM: 64%
K562 [6]
  EC50: 14.8 µM

## Cc1[nH]c(/C=C2\C(=O)Nc3ccc(F)cc32)c(C)c1C(=O)O
[7]
  inhibition: 85%
[2]
  inhibition: 78%
